Calls of active or inactive are those of the source.
Columns and labels:
Cytochrome P450 2C9 = Cytochrome P450 2C9 (Homo sapiens, UniProt P11712)
Large T antigen = Large T antigen (Simian virus 40, UniProt P03070); type: functional, Betapolyomavirus macacae;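 note: Confirmatory-stage PubChem screen for compounds that inhibit SV40 T antigen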
[1] = target: FAD-linked sulfhydryl oxidase ALR (Homo sapiens, UniProt P55789); assay: inhibitors of human ALR sulfhydryl oxidase, dose response, biochemical, H2O2 detection, luminescence, cherry-pick (AID 493248)
FAD-linked sulfhydryl oxidase ALR, sequence (P55789 whole entry): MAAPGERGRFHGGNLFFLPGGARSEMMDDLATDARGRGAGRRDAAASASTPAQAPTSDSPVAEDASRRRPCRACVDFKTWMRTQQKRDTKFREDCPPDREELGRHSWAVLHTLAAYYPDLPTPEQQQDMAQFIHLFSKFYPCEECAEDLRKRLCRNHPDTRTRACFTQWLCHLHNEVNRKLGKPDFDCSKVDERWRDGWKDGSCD

[2] = HepG2 cell cytotoxicity, dose response, cytotoxicity control for Shn3 inhibitor project, CellTiter-Glo, cherry-picked (AID 624134); type: functional, cell-based
[3] = control 3'UTR Renilla luciferase suppression, dose response, counter-screen for Shn3 inhibitor project, cell-based, Clone20-Shn3RL, cherry-picked (AID 624133); type: functional
INS1 = assay: beta cell apoptosis inhibitors, cytokine rescue, dose response, luminescence, retest (AID 449756); type: functional, cell-based; settings: Rattus norvegicus;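 note: cell death triggered by IL-1 beta plus TNF-alpha plus IFN-gamma mixture; protective hits raise ATP signal compared with cytokine alone wells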
[4] = cytotoxicity in HEK-293T cells, dose response, cytotoxicity control for TCR NF-kB inhibitor project, luminescence, T-cell screen hits (AID 489026); type: functional, cell-based;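 note: cells exposed to compound about 14 hours before the viability readout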
[5] = Shn3 3'UTR reporter inhibitors, dose response, cell-based, Clone20 osteoblasts, firefly luciferase, cherry-picked (AID 624132); type: functional;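 note: firefly luciferase luminescence from reporter carrying the Shn3 3'UTR in osteoblasts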
Cytochrome P450 2C19 = Cytochrome P450 2C19 (Homo sapiens, UniProt P33261); assay: Cytochrome panel assay with activity outcomes. Panel member name: p450-cyp2c19 Compounds with AC50 equal or less than 10 uM are considered active; type: functional; settings: read-out: AC50
Cytochrome P450 2C19, sequence (P33261 whole entry): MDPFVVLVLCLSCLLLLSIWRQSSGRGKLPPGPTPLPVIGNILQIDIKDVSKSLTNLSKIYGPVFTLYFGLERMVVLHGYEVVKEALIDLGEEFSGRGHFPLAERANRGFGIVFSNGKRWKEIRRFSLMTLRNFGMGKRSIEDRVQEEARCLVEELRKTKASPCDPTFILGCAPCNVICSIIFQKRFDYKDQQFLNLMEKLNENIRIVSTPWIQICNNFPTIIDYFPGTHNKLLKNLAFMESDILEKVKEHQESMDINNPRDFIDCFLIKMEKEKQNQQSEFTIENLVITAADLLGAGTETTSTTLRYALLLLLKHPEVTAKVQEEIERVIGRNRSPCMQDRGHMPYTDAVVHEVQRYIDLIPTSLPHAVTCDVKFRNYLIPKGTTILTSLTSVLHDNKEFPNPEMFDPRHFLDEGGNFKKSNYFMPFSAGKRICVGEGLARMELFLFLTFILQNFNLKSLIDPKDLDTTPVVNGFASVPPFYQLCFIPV

Cytochrome P450 3A4 = Cytochrome P450 3A4 (Homo sapiens, UniProt P08684);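 note: CYP3A4 tested as one member of a cytochrome P450 panel screen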
Cytochrome P450 3A4, sequence (P08684 whole entry): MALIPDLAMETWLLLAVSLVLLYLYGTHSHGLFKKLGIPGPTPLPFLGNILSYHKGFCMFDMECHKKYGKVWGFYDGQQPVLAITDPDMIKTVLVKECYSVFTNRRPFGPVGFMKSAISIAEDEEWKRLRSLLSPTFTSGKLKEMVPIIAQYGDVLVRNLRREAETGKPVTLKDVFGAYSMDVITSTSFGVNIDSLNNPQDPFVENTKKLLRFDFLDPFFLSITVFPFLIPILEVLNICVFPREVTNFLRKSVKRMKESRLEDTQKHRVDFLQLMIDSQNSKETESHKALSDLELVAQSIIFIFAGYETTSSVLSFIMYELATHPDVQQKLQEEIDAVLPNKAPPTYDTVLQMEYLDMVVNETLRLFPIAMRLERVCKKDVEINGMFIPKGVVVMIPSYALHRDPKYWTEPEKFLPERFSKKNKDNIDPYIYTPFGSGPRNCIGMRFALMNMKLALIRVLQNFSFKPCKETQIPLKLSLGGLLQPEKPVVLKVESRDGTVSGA

Leucine aminopeptidase = target: T1, Leucine aminopeptidase (Plasmodium falciparum 3D7, UniProt Q8IL11); assay: P. falciparum M17LAP inhibitors, primary screen, biochemical, fluorogenic H-Leu-NHMec substrate, 1536-well (AID 1619); type: functional
T1 sequence (Q8IL11 whole entry): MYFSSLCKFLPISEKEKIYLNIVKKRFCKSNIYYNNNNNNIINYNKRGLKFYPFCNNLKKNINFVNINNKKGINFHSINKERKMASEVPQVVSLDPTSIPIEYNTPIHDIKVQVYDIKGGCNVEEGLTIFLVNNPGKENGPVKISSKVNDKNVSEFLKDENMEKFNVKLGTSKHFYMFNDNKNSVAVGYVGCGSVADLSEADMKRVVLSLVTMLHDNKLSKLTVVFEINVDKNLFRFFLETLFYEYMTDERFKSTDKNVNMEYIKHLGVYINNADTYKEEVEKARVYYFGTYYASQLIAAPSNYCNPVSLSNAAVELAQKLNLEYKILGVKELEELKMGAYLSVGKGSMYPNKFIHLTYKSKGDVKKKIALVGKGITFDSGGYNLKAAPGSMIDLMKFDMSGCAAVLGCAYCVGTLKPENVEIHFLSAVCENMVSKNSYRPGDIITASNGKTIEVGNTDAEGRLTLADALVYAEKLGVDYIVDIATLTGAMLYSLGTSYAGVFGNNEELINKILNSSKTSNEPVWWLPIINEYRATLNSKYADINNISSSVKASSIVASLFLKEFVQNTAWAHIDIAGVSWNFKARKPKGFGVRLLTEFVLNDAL

[6] = target: T2, Replicative DNA helicase DnaB (Mycobacterium tuberculosis, UniProt P9WMR3); assay: DnaB intein splicing inhibitors, dose response, biochemical, cell-free fluorescence (AID 449749); type: functional
T2 sequence (P9WMR3 whole entry): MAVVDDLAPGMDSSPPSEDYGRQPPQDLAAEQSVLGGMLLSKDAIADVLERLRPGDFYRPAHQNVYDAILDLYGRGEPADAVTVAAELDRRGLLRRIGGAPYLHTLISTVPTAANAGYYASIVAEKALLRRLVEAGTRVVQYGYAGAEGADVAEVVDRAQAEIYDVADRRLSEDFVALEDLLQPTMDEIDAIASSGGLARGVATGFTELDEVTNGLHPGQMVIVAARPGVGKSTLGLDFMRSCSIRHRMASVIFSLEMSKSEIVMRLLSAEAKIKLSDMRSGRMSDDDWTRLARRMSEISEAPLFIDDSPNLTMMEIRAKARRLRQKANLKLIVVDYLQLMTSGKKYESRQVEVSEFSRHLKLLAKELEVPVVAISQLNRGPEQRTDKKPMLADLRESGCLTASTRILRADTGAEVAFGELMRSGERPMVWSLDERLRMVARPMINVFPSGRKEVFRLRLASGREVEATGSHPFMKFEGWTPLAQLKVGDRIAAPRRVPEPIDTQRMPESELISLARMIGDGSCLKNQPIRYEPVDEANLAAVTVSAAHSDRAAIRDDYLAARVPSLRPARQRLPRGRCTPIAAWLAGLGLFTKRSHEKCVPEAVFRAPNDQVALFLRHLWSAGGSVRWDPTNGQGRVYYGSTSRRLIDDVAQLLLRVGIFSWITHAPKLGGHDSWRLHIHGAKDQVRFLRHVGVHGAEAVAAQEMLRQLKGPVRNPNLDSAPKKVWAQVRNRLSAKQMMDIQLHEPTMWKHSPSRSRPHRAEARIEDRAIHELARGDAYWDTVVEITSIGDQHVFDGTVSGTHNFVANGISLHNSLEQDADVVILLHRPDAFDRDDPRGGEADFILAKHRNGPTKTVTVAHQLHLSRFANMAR

Protein RecA = target: T3, Protein RecA (Mycobacterium tuberculosis, UniProt P9WHJ3); assay: Fluorescence Cell-Free Homogeneous Dose Retest to Identify Inhibitors of RecA-Intein Splicing Activity. [Related pubchem assays (depositor defined):AID2097, AID2223, AID489010, AID492950]; type: functional
T3 sequence (P9WHJ3 whole entry): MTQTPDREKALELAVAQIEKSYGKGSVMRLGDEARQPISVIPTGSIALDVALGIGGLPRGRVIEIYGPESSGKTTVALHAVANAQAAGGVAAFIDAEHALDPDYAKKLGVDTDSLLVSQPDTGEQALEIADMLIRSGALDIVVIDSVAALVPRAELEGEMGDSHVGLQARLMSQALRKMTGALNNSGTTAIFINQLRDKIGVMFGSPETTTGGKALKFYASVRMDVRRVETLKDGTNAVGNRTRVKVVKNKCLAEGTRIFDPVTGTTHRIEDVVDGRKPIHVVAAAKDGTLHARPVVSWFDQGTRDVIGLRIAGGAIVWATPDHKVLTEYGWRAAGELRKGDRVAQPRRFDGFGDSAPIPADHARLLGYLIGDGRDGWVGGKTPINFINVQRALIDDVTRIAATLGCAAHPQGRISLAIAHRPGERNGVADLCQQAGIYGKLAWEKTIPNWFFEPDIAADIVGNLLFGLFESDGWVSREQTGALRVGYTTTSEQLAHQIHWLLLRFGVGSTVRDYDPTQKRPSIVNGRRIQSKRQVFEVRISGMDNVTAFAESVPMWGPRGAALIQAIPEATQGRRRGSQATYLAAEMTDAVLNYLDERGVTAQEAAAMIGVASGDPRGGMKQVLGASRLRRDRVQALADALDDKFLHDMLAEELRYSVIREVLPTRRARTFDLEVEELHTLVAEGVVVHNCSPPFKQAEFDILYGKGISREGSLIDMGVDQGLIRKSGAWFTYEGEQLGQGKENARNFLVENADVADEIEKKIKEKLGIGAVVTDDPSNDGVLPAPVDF

[7] = Luminescence Cell-Based Dose Response HTS to Identify Activators of Luciferase Translation or Activity in H4 […] Cells. [Related pubchem assays: 1829 (Project Summary), 1814 (Primary HTS)]; type: functional
H4 = assay: Luminescence Cell-Based Dose Response HTS to Identify Activators of 5'UTR Stem-Loop Driven Prion Protein mRNA Translation in H4 Neuroglioblastoma Cells. [Related pubchem assays: 1829 (Project Summary), 1814 (Primary HTS)]; type: functional; settings: Homo sapiens
[8] = Luminescence Cell-Based Dose Confirmation HTS to Identify Activators of 5'UTR Stem-Loop Driven Alpha-Synuclein mRNA Translation in H4 Neuroglioblastoma Cells. [Related pubchem assays: 1829 (Project Summary), 1814 (Primary HTS)]; type: functional
cells = type: functional
Streptococcus = assay: Group A Streptococcus viability loss, dose response, counter-screen for streptokinase expression inhibitor project, luminescence, BacTiterGlo (AID 1915); type: functional, organism-based;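 note: potency for reduction of bacterial viability or growth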
Streptokinase A = target: T4, Streptokinase A (Streptococcus pyogenes serotype M1, UniProt P10520); assay: S. pyogenes streptokinase expression inhibitors, potency, dose response, plasminogen activation absorbance, OD405 (AID 1914); type: functional, Streptococcus pyogenes M1 GAS;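 note: secreted streptokinase activity via plasminogen activation per viability signal from cell pellet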
T4 sequence (P10520 whole entry): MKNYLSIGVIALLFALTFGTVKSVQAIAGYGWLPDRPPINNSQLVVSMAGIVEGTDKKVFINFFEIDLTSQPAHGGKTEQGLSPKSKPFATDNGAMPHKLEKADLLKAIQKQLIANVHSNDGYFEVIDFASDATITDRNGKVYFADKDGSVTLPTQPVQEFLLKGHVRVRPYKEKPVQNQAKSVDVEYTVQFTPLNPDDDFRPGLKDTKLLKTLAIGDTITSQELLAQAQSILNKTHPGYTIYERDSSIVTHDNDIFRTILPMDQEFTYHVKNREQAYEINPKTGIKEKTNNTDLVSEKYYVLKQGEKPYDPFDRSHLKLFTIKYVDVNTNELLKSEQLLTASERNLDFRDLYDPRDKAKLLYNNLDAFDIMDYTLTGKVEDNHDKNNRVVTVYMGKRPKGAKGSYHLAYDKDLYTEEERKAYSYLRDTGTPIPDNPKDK

[9] = system: Streptococcus sp. 'group A'; assay: growth inhibition of control SK(-) GAS strain, dose response, counter-screen for streptokinase expression inhibitor project, luminescence, kanamycin, BacTiterGlo, confirmation (AID 1900); type: functional, organism-based
[10] = cytotoxicity toward NIH3T3 fibroblasts, dose response, counter-screen, cell-based, ATP luminescence, mouse fibroblasts (AID 2010); type: functional;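 note: cells exposed to compound for about 90 hours before reading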
[11] = inhibitors of intracellular T. cruzi replication, confirmation, NIH3T3 host cells, beta-gal luminescence (AID 2044); type: functional, cell-based;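 note: intracellular parasites grown in NIH/3T3 mouse fibroblasts as host cells; luminescent beta-galactosidase reporter signal from transgenic T. cruzi replicating inside host cells; inhibitors lower the luminescence signal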
[12] = target: Luciferin 4-monooxygenase (Photinus pyralis, UniProt P08659); assay: firefly luciferase enzyme inhibitors, dose response, biochemical, luminescence (AID 1891)
Luciferin 4-monooxygenase, sequence (P08659 whole entry): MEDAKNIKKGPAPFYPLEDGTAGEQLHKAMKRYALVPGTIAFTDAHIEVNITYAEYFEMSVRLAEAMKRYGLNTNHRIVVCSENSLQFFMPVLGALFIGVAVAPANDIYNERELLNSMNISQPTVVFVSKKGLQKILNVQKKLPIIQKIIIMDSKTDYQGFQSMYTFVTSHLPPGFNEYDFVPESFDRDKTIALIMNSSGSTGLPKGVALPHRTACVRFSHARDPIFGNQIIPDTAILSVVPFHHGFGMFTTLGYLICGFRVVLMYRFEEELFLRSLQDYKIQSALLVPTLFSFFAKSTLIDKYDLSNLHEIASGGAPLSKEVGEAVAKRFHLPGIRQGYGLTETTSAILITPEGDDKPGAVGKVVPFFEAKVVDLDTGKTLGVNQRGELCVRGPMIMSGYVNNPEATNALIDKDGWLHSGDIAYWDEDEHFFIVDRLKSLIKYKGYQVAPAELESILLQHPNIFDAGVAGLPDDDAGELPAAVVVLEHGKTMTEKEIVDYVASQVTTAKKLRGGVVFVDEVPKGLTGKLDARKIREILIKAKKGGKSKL

[13] = Luminescence Cell-Based Dose Confirmation HTS to Identify Inhibitors of Platelet Dense Granule Release. [Related pubchem assays: 1663 (Primary HTS), 1678 (Summary of Project)]; type: functional

Cytochrome P450 2C9, sequence (P11712 whole entry): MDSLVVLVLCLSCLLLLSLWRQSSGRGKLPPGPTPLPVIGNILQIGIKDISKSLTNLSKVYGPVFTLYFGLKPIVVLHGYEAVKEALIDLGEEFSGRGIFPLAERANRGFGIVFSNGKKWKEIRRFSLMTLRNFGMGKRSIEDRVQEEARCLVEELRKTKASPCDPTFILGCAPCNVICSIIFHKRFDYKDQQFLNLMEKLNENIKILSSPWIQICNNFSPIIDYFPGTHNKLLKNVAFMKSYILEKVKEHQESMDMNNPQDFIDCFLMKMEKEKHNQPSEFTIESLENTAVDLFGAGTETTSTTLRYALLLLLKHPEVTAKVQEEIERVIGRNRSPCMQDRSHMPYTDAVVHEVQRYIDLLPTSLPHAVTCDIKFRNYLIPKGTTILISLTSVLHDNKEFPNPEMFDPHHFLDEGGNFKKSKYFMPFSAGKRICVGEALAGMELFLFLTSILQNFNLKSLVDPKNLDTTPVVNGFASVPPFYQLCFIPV
Large T antigen, sequence (P03070 whole entry): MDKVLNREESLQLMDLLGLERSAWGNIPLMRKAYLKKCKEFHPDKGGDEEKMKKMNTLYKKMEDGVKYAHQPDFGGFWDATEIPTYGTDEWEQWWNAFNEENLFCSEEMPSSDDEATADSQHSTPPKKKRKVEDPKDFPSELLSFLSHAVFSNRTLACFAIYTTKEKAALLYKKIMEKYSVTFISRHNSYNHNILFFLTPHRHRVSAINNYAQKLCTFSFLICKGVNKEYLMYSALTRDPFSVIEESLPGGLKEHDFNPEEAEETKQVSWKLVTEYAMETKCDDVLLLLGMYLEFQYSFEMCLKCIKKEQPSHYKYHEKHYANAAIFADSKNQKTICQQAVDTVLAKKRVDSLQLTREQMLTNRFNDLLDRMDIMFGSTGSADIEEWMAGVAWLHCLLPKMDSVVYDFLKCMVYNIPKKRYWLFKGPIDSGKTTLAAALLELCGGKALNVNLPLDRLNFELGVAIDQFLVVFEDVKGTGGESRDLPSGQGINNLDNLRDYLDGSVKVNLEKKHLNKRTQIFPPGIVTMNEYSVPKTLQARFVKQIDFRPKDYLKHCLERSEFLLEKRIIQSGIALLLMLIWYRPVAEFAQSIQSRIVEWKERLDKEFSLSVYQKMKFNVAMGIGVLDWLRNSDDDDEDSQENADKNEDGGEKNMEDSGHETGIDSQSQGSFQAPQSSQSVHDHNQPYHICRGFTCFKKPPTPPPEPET

COc1cccc2cc(C(=O)CC3(O)C(=O)N(Cc4ccccc4)c4ccccc43)c(=O)oc12 (stereo not drawn)
AC50 (Cytochrome P450 2C9): inconclusive

C=C(C)C(=O)N1CC2(CC(c3cccc(NC(=O)c4ccccc4)c3)=NO2)C[C@@H]1C(N)=O (stereo partly drawn)
AC50 (Cytochrome P450 2C9): inconclusive

CCN(CC)c1ccc(NC(=O)CCNS(=O)(=O)c2ccc3c(c2)CCC(=O)N3)c(C)c1
IC50 (Large T antigen): 42.6 µM (active) | AC50 [1]: 1.09 µM (active)

Nc1c2c(nc3ccccc13)CCC[C@H]2O
AC50 (Cytochrome P450 2C9): inconclusive

Cc1ccc(-n2c(=O)c3c4c(sc3n3c(S)nnc23)CCC4)cc1
IC50 (Large T antigen): 30.9 µM (active)

O=S(=O)(c1cc(F)ccc1F)N1CCN(c2ncnc3ccccc23)CC1
AC50 [2]: 33.6 µM (active) | AC50 [3]: 4.86 µM (active) | AC50 (INS1): 2.26 µM (active) | IC50 [4]: 65.1 µM (inactive) | AC50 [5]: 1.85 µM (active)

CNc1nc(-c2c(C)noc2C)nc2ccccc12
AC50 (Cytochrome P450 2C9): inconclusive | AC50 (Cytochrome P450 2C19): 3.98 µM (inconclusive) | AC50 (Cytochrome P450 3A4): 12.6 µM (inconclusive)

Cc1cc(C)cc(NC(=O)C2CCN(c3nc(C)cc(C)n3)CC2)c1
IC50 (Leucine aminopeptidase): 105 µM (active)

O=C1c2ccccc2-c2c1nc1c([n+]2[O-])CCCC1
AC50 [6]: 21 µM (active) | EC50 (Protein RecA): 20.1 µM (active) | EC50 [7]: 4.63 µM (active) | EC50 (H4): 6.95 µM (active) | EC50 [8]: 0.262 µM (active)

O=C(OCC#CCSc1nc2ccccc2o1)c1ccco1
IC50 (cells): 10 µM (active)

O=C(Oc1cccnc1)c1ccc(Cl)c(Cl)c1
IC50 (cells): 1.31 µM (active)

CCOC(=O)CNc1c(-c2ccc(O)cc2)nc2ccccn12
IC50 (Large T antigen): 14.7 µM (active)

S=C(NCCSCc1ccc(Cl)cc1Cl)Nc1ccccc1
AC50 (Cytochrome P450 2C9): inconclusive | EC50 (Streptococcus): 17 µM (active) | EC50 (Streptokinase A): > 150 µM (not active) | EC50 [9]: 11.5 µM (active)

O=C(OCC(=O)N1CCN(c2ccccc2)CC1)c1ccc2ccccc2n1
IC50 (cells): 16.3 µM (active)

CCOC(=O)Cn1c(-c2ccccc2)ccc(C#N)c1=O
IC50 (cells): 7.5 µM (active)

CC(C)(C)OC(=O)[C@H]1[C@H](c2ccc([N+](=O)[O-])cc2)C2(C(=O)c3ccccc3C2=O)C2c3ccccc3C=NN21 (stereo partly drawn)
IC50 (Leucine aminopeptidase): 2.23 µM (active)

CC(Oc1ccc(Cl)cc1Cl)c1nc(-c2ccc(NC(=O)c3ccncc3)cc2)no1 (stereo not drawn)
EC50 [10]: > 60 µM (not active) | AC50 [2]: 6.83 µM (active) | AC50 [3]: 21.7 µM (active) | IC50 [4]: > 80 µM (inactive) | AC50 [5]: 3.93 µM (active) | EC50 [11]: 1.46 µM (active)

Cc1ccc(NC(=O)CCSc2nnc(Cc3ccccc3)o2)cc1
IC50 (cells): 18.2 µM (active)

Nc1nc2ccc(O)cc2s1
IC50 (Large T antigen): 3.5 µM (active)

O=C(O)c1ccc(-c2ccc(-c3ccccc3)cc2)s1
IC50 [4]: > 80 µM (inactive)

COc1ccc(OCCCn2cccc2/C=C2/C(=N)N3OC(C)=CC3=NC2=O)cc1
IC50 (Leucine aminopeptidase): 10.9 µM (active)

N#CC1=C2SCN(Cc3ccco3)CN2C(=O)CC1c1c(F)cccc1Cl (stereo not drawn)
IC50 (Large T antigen): 84.4 µM (active)

Oc1cc(-c2ccccc2)nc2nc(SCc3ccccc3)nn12
IC50 (Leucine aminopeptidase): 5.04 µM (active)

Oc1oc(-c2ccco2)nc1/C=N/c1cccc(Cl)c1
IC50 (cells): > 50 µM (active)

FC(F)(F)C1CCCN(c2nsc3ccccc23)C1 (stereo not drawn)
IC50 (Large T antigen): 13 µM (active)

COc1ccc(NC(=O)CSc2c3c(nc4cc(Cl)ccc24)CCCC3)cc1OC
AC50 [6]: 8.17 µM (active) | EC50 [12]: > 112 µM (not active) | EC50 (Protein RecA): 3.1 µM (active) | EC50 [13]: > 112 µM (not active)
